The text below walks through data of patent US11325916B1, “Spiropyrrolidine derived antiviral agents” (priority 2021, dated 2022).

Molecules are shown by their SMILES. Some results are limits rather than exact numbers.

Assay [1] deals with SARS-CoV-2 3CL-protease (Severe acute respiratory syndrome coronavirus 2 (2019-nCoV) (SARS-CoV-2), UniProt P0DTD1). Put plainly: SARS-CoV-2 3C-Like (3CL) Protease Fluorescence Assay (FRET). The class given is biochemical.
The subject of assay [2] is 229E human corona virus (hCoV). Put plainly: 229E Live Virus Assay (MRC-5 cells, CPE, ATPlite readout). The class given is cell-based, hCoV-229E. To be noted: Human coronavirus 229E, MRC5, 144 h, read-out: 229E EC50. Background: Cellular ATP, detected with luciferase, serves as a proxy for viable cell number.

The term IC50 denotes the point on the concentration scale where inhibition reaches its midpoint. A low value points to higher potency. Usually EC50 stands for the concentration giving half of the maximal effect. On to `COC(=O)N[C@@H](CC1CC1)C(=O)N(C)[C@@H](CC(C)C)C(=O)N1C[C@]2(C[C@H]1C#N)C(=O)Nc1ccccc12` [Example 16], for which the IC50 in assay [1] is less than 0.1 µM. Besides, the EC50 in assay [2] is less than 0.1 µM.
In assay [1], `CC(C)C[C@@H](C(=O)N1C[C@]2(C[C@H]1C#N)C(=O)Nc1ccccc12)N(C)C(=O)[C@H](CC1CC1)NC(=O)c1ccc(F)cc1` [Example 17] had an IC50 of less than 0.1 µM. In addition, in assay [2], the EC50 was less than 0.1 µM.
In assay [1], `CC(C)C[C@@H](C(=O)N1C[C@]2(C[C@H]1C#N)C(=O)Nc1ccccc12)N(C)C(=O)[C@H](Cc1ccc(F)cc1)NC(=O)c1cnccn1` [Example 18] returned an IC50 of less than 0.1 µM. For the same compound, in assay [2], the EC50 was less than 0.1 µM.
Regarding `CC(C)C[C@@H](C(=O)N1C[C@]2(C[C@H]1C#N)C(=O)Nc1ccccc12)N(C)C(=O)[C@H](Cc1ccc(F)cc1)NC(=O)c1ccn(C)n1` [Example 19], the IC50 in assay [1] was less than 0.1 µM. Besides, the EC50 in assay [2] was less than 0.1 µM.
`CC(C)C[C@@H](C(=O)N1C[C@]2(C[C@H]1C#N)C(=O)Nc1ccccc12)N(C)C(=O)[C@@H](NC(=O)OCc1ccccc1)C1CCCCC1` [Example 20]: the IC50 in assay [1] is less than 0.1 µM. Further, the EC50 in assay [2] is less than 0.1 µM.
In assay [1], `CC(C)C[C@@H](C(=O)N1C[C@]2(C[C@H]1C#N)C(=O)Nc1ccccc12)N(C)C(=O)[C@@H](NC(=O)C(F)(F)F)C1CCCCC1` [Example 21] came in with an IC50 of less than 0.1 µM. Besides, the EC50 in assay [2] was less than 0.1 µM.
In assay [1], `CC(C)C[C@@H](C(=O)N1C[C@]2(C[C@H]1C#N)C(=O)Nc1ccccc12)N(C)C(=O)C(NC(=O)OCc1ccccc1)c1ccccc1` (stereo partly drawn) [Example 22] registered an IC50 of less than 0.1 µM. Moreover, in assay [2], the EC50 was less than 0.1 µM.
Compound `COC(=O)N[C@H](C(=O)N(C)[C@@H](CC(C)C)C(=O)N1C[C@]2(C[C@H]1C#N)C(=O)Nc1ccccc12)C1CCCCC1` [Example 23] displayed an IC50 in assay [1] of less than 0.1 µM. The EC50 in assay [2] lay in the range of 0.1 to 1 µM.
For `CC(C)C[C@@H](C(=O)N1C[C@]2(C[C@H]1C#N)C(=O)Nc1ccccc12)N(C)C(=O)[C@H](CC1CCC1)NC(=O)OCc1ccccc1` [Example 24], in that order: less than 0.1 µM and less than 0.1 µM.
For `CC(C)C[C@@H](C(=O)N1C[C@]2(C[C@H]1C#N)C(=O)Nc1ccccc12)N(C)C(=O)[C@H](CC(C)(C)C)NC(=O)OCc1ccccc1` [Example 25], in that order: less than 0.1 µM and less than 0.1 µM.
The like results for `CC(C)C[C@@H](C(=O)N1C[C@]2(C[C@H]1C#N)C(=O)Nc1ccccc12)N(C)C(=O)[C@H](CC(C)(C)C)NC(=O)C(F)(F)F` [Example 26] were, in that order, less than 0.1 µM and less than 0.1 µM.
Consider `CC(C)C[C@@H](C(=O)N1C[C@]2(C[C@H]1C#N)C(=O)Nc1ccccc12)N(C)C(=O)[C@H](CC1CCC1)NC(=O)C(F)(F)F` [Example 27], for which the IC50 in assay [1] is less than 0.1 µM. Moreover, in assay [2], the EC50 was less than 0.1 µM.
For `CN(C(=O)[C@@H](NC(=O)OCc1ccccc1)C(C)(C)C)[C@@H](Cc1ccccc1)C(=O)N1C[C@]2(C[C@H]1C#N)C(=O)Nc1ccccc12` [Example 28], in assay [1], the IC50 is less than 0.1 µM. In assay [2], the EC50 lay within 0.1 to 1 µM.
For `CN(C(=O)[C@@H](N)C(C)(C)C)[C@@H](Cc1ccccc1)C(=O)N1C[C@]2(C[C@H]1C#N)C(=O)Nc1ccccc12` [Example 29], in that order: less than 0.1 µM and 0.1 to 1 µM.
The like results for `CN(C(=O)[C@@H](NCc1cc(F)c(F)cc1F)C(C)(C)C)[C@@H](Cc1ccccc1)C(=O)N1C[C@]2(C[C@H]1C#N)C(=O)Nc1ccccc12` [Example 30] were, in that order, less than 0.1 µM and 0.1 to 1 µM.
The like results for `CC(C)C[C@@H](C(=O)N1C[C@]2(C[C@H]1C#N)C(=O)Nc1ccccc12)N(C)C(=O)[C@H](CC(C)(C)C)N(C)C(=O)OCc1ccccc1` [Example 32] were, in that order, less than 0.1 µM and less than 0.1 µM.
On to `CC(C)C[C@@H](C(=O)N1C[C@]2(C[C@H]1C#N)C(=O)Nc1ccccc12)N(C)C(=O)[C@H](CC(C)(C)C)NC(=O)c1ccc(F)cc1` [Example 34], for which the IC50 in assay [1] is less than 0.1 µM. In assay [2], the EC50 is less than 0.1 µM.
The compound `CC(C)C[C@@H](C(=O)N1C[C@]2(C[C@H]1C#N)C(=O)Nc1ccccc12)N(C)C(=O)[C@H](CC1CCC1)NC(=O)c1ccc(F)cc1` [Example 35] gave an IC50 in assay [1] of less than 0.1 µM. Besides, the EC50 in assay [2] was less than 0.1 µM.
`CC(C)C[C@H](NC(=O)[C@@H](NC(=O)OCc1ccccc1)C(C)(C)C)C(=O)N1C[C@]2(C[C@H]1C#N)C(=O)Nc1ccccc12` [Example 36]: in assay [1], the IC50 is less than 0.1 µM. Also, the EC50 in assay [2] lay in the range of 0.1 to 1 µM.
For `Cc1cc(C(=O)N[C@@H](Cc2ccc(F)cc2)C(=O)N(C)[C@@H](CC(C)(C)C)C(=O)N2C[C@]3(C[C@H]2C#N)C(=O)Nc2ccccc23)no1` [Example 39], in that order: less than 0.1 µM and less than 0.1 µM.
The like results for `Cc1cc(C(=O)N[C@H](C(=O)N(C)[C@@H](CC(C)C)C(=O)N2C[C@]3(C[C@H]2C#N)C(=O)Nc2ccccc23)C2CCCCC2)no1` [Example 40] were, in that order, less than 0.1 µM and 0.1 to 1 µM.
`CC(=O)N[C@@H](CC1CC1)C(=O)N(C)[C@@H](CC(C)C)C(=O)N1C[C@]2(C[C@H]1C#N)C(=O)Nc1ccccc12` [Example 41] registered an IC50 in assay [1] of less than 0.1 µM. Moreover, the EC50 in assay [2] was less than 0.1 µM.
Regarding `CC(C)C[C@@H](C(=O)N1C[C@]2(C[C@H]1C#N)C(=O)Nc1ccccc12)N(C)C(=O)[C@H](CC1CCC1)NC(=O)C(C)(C)C` [Example 42], the IC50 in assay [1] was less than 0.1 µM. For the same compound, the EC50 in assay [2] is less than 0.1 µM.
In assay [1], `CC(C)C[C@@H](C(=O)N1C[C@]2(C[C@H]1C#N)C(=O)Nc1ccccc12)N(C)C(=O)[C@H](CC(C)(C)C)NC(=O)C(C)(C)C` [Example 43] yielded an IC50 of less than 0.1 µM. In assay [2], the EC50 was less than 0.1 µM.
Turning to `CC(=O)N(C)[C@@H](CC(C)(C)C)C(=O)N(C)[C@@H](CC(C)C)C(=O)N1C[C@]2(C[C@H]1C#N)C(=O)Nc1ccccc12` [Example 44], in assay [1], the IC50 was less than 0.1 µM. Further, the EC50 in assay [2] was 0.1 to 1 µM.
For `CC(C)C[C@@H](C(=O)N1C[C@]2(C[C@H]1C#N)C(=O)Nc1ccccc12)N(C)C(=O)[C@H](CC1CCC1)NC(=O)c1cc2c(F)cc(F)c(F)c2[nH]1` [Example 45], in that order: less than 0.1 µM and 0.1 to 1 µM.
The like results for `CC(C)[C@H](NC(=O)OC(C)(C)C)C(=O)N(C)[C@@H](Cc1ccccc1)C(=O)N1C[C@]2(C[C@H]1C#N)C(=O)Nc1ccccc12` [Example 47] were, in that order, less than 0.1 µM and less than 0.1 µM.
The like results for `CC(C)[C@@H](NC(=O)OC(C)(C)C)C(=O)N(C)[C@@H](Cc1ccccc1)C(=O)N1C[C@]2(C[C@H]1C#N)C(=O)Nc1ccccc12` [Example 48] were, in that order, less than 0.1 µM and less than 0.1 µM.
On to `CC(C)C[C@@H](C(=O)N1C[C@]2(C[C@H]1C#N)C(=O)Nc1ccccc12)N(C)C(=O)[C@@H](NC(=O)OCc1ccccc1)C(C)C` [Example 49], for which, in assay [1], the IC50 was less than 0.1 µM. For the same compound, the EC50 in assay [2] is less than 0.1 µM.
In turn, `CC(C)C[C@@H](C(=O)N1C[C@]2(C[C@H]1C#N)C(=O)Nc1ccccc12)N1CC[C@H](NC(=O)C(F)(F)F)C1=O` [Example 50] gave an IC50 in assay [1] of 0.1 to 1 µM. For the same compound, in assay [2], the EC50 is more than 1 µM.
